According to ChEMBL document CHEMBL3885861, “Open TG-GATES”:

Species: Rattus norvegicus
Assay: Open TG-GATES - Regimen: Daily Repeat
Type: toxicity, organism-based, Sprague-Dawley
Design: regimen Daily Repeat, gender Male, age 6 weeks
Settings: in vivo, po, route gavage; for APTT / Bas / Eos / Fbg / Hb / Ht / Lym / MCHC / MCV / Mono / Neu / PT / Plat / RBC / Ret / WBC: tissue Blood; for KIDNEY_L / KIDNEY_R / KIDNEY_TOTAL: tissue Kidney; for LIVER: tissue Liver; for ALP / ALT / AST / CRE / DBIL / GLC / K / LDH / Na / PL / RALB / TBIL / TC / TG / TP / gamma-GTP / IP / Ca: tissue Plasma
[1] = 200 mg/kg, 72 h, dose level Middle, time 3 day
[2] = 200 mg/kg, […], dose level Middle, time 7 day
[3] = 200 mg/kg, […], dose level Middle, time 14 day
[4] = 200 mg/kg, […], dose level Middle, time 28 day
[5] = 600 mg/kg, 72 h, dose level High, time 3 day
[6] = 600 mg/kg, […], dose level High, time 7 day
[7] = 600 mg/kg, […], dose level High, time 14 day
[8] = 600 mg/kg, […], dose level High, time 28 day

## O=C1NC(=O)C(c2ccccc2)(c2ccccc2)N1 [PHENYTOIN]
[1]
  TERMINAL_BW: 220.5 g
  APTT: 21 s
  Bas: 0%
  Eos: 0.8%
  Fbg: 304.4 mg/dL
  Hb: 13 g/dL
  Ht: 39.4%
  Lym: 77.4%
  MCHC: 33.1%
  MCV: 63.8 fL
  Mono: 2.4%
  Neu: 18.4%
  PT: 15.5 s
  Plat: 117 x10_4/uL
  RBC: 618.4 x10_4/ul
  Ret: 7.3%
  WBC: 98.2 x10_2/uL
  KIDNEY_L: 0.9 g
  KIDNEY_R: 0.9 g
  KIDNEY_TOTAL: 1.9 g
  LIVER: 10.5 g
  ALP: 1568.8 IU/L
  ALT: 45.8 IU/L
  AST: 75.4 IU/L
  CRE: 0.1 mg/dL
  DBIL: 0.008 mg/dL
  GLC: 185.8 mg/dL
  K: 4 meq/L
  LDH: 188 IU/L
  Na: 143.4 meq/L
  PL: 147 mg/dL
  RALB: 2.9 g/dL
  TBIL: 0.012 mg/dL
  TC: 84.4 mg/dL
  TG: 85.2 mg/dL
  TP: 5.8 g/dL
  gamma-GTP: 1 IU/L
[2]
  TERMINAL_BW: 247.9 g
  APTT: 22.3 s
  Bas: 0%
  Eos: 0.6%
  Fbg: 324 mg/dL
  Hb: 13.1 g/dL
  Ht: 38.8%
  Lym: 79.8%
  MCHC: 33.7%
  MCV: 62.5 fL
  Mono: 2.4%
  Neu: 16.2%
  PT: 15.6 s
  Plat: 123.7 x10_4/uL
  RBC: 621.2 x10_4/ul
  Ret: 6%
  WBC: 109.9 x10_2/uL
  KIDNEY_L: 1.1 g
  KIDNEY_R: 1 g
  KIDNEY_TOTAL: 2.1 g
  LIVER: 12.4 g
  ALP: 1383 IU/L
  ALT: 39.4 IU/L
  AST: 61 IU/L
  CRE: 0.2 mg/dL
  DBIL: 0.004 mg/dL
  GLC: 187.6 mg/dL
  IP: 6.9 mg/dL
  K: 4.1 meq/L
  LDH: 159.2 IU/L
  Na: 141.8 meq/L
  PL: 146.4 mg/dL
  RALB: 3.1 g/dL
  TBIL: 0.024 mg/dL
  TC: 74.8 mg/dL
  TG: 120.4 mg/dL
  TP: 5.8 g/dL
  gamma-GTP: 1 IU/L
[3]
  TERMINAL_BW: 301 g
  APTT: 22.3 s
  Bas: 0%
  Eos: 0.8%
  Fbg: 285.6 mg/dL
  Hb: 14.1 g/dL
  Ht: 41.4%
  Lym: 82.6%
  MCHC: 34.1%
  MCV: 62 fL
  Mono: 2.2%
  Neu: 13.6%
  PT: 16.3 s
  Plat: 121.5 x10_4/uL
  RBC: 669.8 x10_4/ul
  Ret: 4.7%
  WBC: 112.2 x10_2/uL
  KIDNEY_L: 1.2 g
  KIDNEY_R: 1.2 g
  KIDNEY_TOTAL: 2.4 g
  LIVER: 13.9 g
  ALP: 1572.8 IU/L
  ALT: 41.8 IU/L
  AST: 65.8 IU/L
  CRE: 0.2 mg/dL
  DBIL: 0 mg/dL
  GLC: 174.2 mg/dL
  IP: 7 mg/dL
  K: 4.2 meq/L
  LDH: 130 IU/L
  Na: 142.8 meq/L
  PL: 147 mg/dL
  RALB: 3.1 g/dL
  TBIL: 0.002 mg/dL
  TC: 70.6 mg/dL
  TG: 163.4 mg/dL
  TP: 5.6 g/dL
  gamma-GTP: 1.6 IU/L
[4]
  TERMINAL_BW: 393.6 g
  APTT: 23.4 s
  Bas: 0%
  Eos: 1.2%
  Fbg: 332.6 mg/dL
  Hb: 15.4 g/dL
  Ht: 43.4%
  Lym: 84%
  MCHC: 35.5%
  MCV: 58.1 fL
  Mono: 1.4%
  Neu: 12.6%
  PT: 15.8 s
  Plat: 122.2 x10_4/uL
  RBC: 747 x10_4/ul
  Ret: 2.9%
  WBC: 117 x10_2/uL
  KIDNEY_L: 1.4 g
  KIDNEY_R: 1.5 g
  KIDNEY_TOTAL: 2.9 g
  LIVER: 17.5 g
  ALP: 1131.8 IU/L
  ALT: 44 IU/L
  AST: 74.6 IU/L
  CRE: 0.2 mg/dL
  DBIL: 0.002 mg/dL
  GLC: 186.4 mg/dL
  IP: 6.3 mg/dL
  K: 3.9 meq/L
  LDH: 146.2 IU/L
  Na: 143.6 meq/L
  PL: 160 mg/dL
  RALB: 3.2 g/dL
  TBIL: 0.028 mg/dL
  TC: 81 mg/dL
  TG: 138.4 mg/dL
  TP: 6.3 g/dL
  gamma-GTP: 1.6 IU/L
[5]
  TERMINAL_BW: 211.2 g
  APTT: 21.7 s
  Bas: 0%
  Eos: 1%
  Fbg: 282.8 mg/dL
  Hb: 13.4 g/dL
  Ht: 39.8%
  Lym: 77.6%
  MCHC: 33.8%
  MCV: 64.7 fL
  Mono: 2.4%
  PT: 15.7 s
  Plat: 124.6 x10_4/uL
  RBC: 617 x10_4/ul
  Ret: 6.3%
  WBC: 85 x10_2/uL
  KIDNEY_L: 0.9 g
  KIDNEY_R: 0.9 g
  KIDNEY_TOTAL: 1.9 g
  LIVER: 10.5 g
  ALP: 1803.2 IU/L
  ALT: 45 IU/L
  AST: 73.6 IU/L
  CRE: 0.1 mg/dL
  DBIL: 0.002 mg/dL
  GLC: 158 mg/dL
  IP: 7.3 mg/dL
  K: 4.4 meq/L
  LDH: 193.6 IU/L
  Na: 143.2 meq/L
  PL: 127.4 mg/dL
  RALB: 3 g/dL
  TBIL: 0.01 mg/dL
  TC: 67 mg/dL
  TG: 74.6 mg/dL
  TP: 5.7 g/dL
  gamma-GTP: 1.2 IU/L
[6]
  TERMINAL_BW: 243.1 g
  APTT: 23.9 s
  Bas: 0%
  Eos: 0.6%
  Fbg: 311.5 mg/dL
  Hb: 13.8 g/dL
  Ht: 39.7%
  Lym: 80.4%
  MCHC: 34.7%
  MCV: 62.1 fL
  Mono: 2.2%
  Neu: 15.6%
  PT: 15.6 s
  Plat: 125.6 x10_4/uL
  RBC: 638.6 x10_4/ul
  Ret: 4.6%
  WBC: 101.9 x10_2/uL
  KIDNEY_L: 1.1 g
  KIDNEY_R: 1.1 g
  KIDNEY_TOTAL: 2.2 g
  LIVER: 13.6 g
  ALP: 1547.2 IU/L
  ALT: 39.4 IU/L
  AST: 59.6 IU/L
  CRE: 0.2 mg/dL
  DBIL: 0 mg/dL
  GLC: 167 mg/dL
  IP: 6.8 mg/dL
  K: 4.2 meq/L
  LDH: 173 IU/L
  Na: 142.2 meq/L
  PL: 145.2 mg/dL
  RALB: 3 g/dL
  TBIL: 0.024 mg/dL
  TC: 77.8 mg/dL
  TG: 78.6 mg/dL
  TP: 5.8 g/dL
  gamma-GTP: 1 IU/L
[7]
  TERMINAL_BW: 290.1 g
  APTT: 25.5 s
  Bas: 0%
  Eos: 0.8%
  Fbg: 281.6 mg/dL
  Hb: 14.4 g/dL
  Ht: 42.7%
  Lym: 81.6%
  MCHC: 33.6%
  MCV: 60.3 fL
  Mono: 1.8%
  Neu: 14.6%
  PT: 16.3 s
  Plat: 121.7 x10_4/uL
  RBC: 709.6 x10_4/ul
  Ret: 4.4%
  WBC: 118.8 x10_2/uL
  KIDNEY_L: 1.2 g
  KIDNEY_R: 1.2 g
  KIDNEY_TOTAL: 2.3 g
  LIVER: 13.6 g
  ALP: 1535.6 IU/L
  ALT: 43.6 IU/L
  AST: 65.6 IU/L
  CRE: 0.2 mg/dL
  Ca: 10.2 mg/dL
  DBIL: 0 mg/dL
  GLC: 186 mg/dL
  IP: 6.4 mg/dL
  K: 4.1 meq/L
  LDH: 157.2 IU/L
  Na: 143 meq/L
  PL: 137.8 mg/dL
  RALB: 3 g/dL
  TBIL: 0.004 mg/dL
  TC: 69.4 mg/dL
  TG: 99.4 mg/dL
  TP: 5.7 g/dL
  gamma-GTP: 1.6 IU/L
[8]
  TERMINAL_BW: 332.2 g
  APTT: 25.5 s
  Bas: 0%
  Eos: 1%
  Fbg: 299 mg/dL
  Hb: 15.7 g/dL
  Ht: 44.4%
  Lym: 85.2%
  MCHC: 35.4%
  MCV: 56.8 fL
  Mono: 1.4%
  Neu: 11.6%
  PT: 15.9 s
  Plat: 105 x10_4/uL
  RBC: 781.8 x10_4/ul
  Ret: 2.5%
  WBC: 89.2 x10_2/uL
  KIDNEY_L: 1.3 g
  KIDNEY_R: 1.3 g
  KIDNEY_TOTAL: 2.6 g
  LIVER: 13.8 g
  ALP: 1175.6 IU/L
  ALT: 40.4 IU/L
  AST: 62 IU/L
  CRE: 0.2 mg/dL
  Ca: 10 mg/dL
  DBIL: 0 mg/dL
  GLC: 183.2 mg/dL
  IP: 5.4 mg/dL
  K: 4 meq/L
  LDH: 135.8 IU/L
  Na: 143.4 meq/L
  PL: 135.4 mg/dL
  RALB: 3.1 g/dL
  TBIL: 0.024 mg/dL
  TC: 67.2 mg/dL
  TG: 95.4 mg/dL
  TP: 6.1 g/dL
  gamma-GTP: 1.4 IU/L
